Assay results reported in patent US6414038B2, “Hydroxystilbenes for reducing/inhibiting protein glycation and combating skin aging” (Societe L'Oreal, priority 1999, dated 2002).
Where two headings read alike, the source gives them in different places.

Molecular target: bovine serum albumin (Bos taurus, UniProt P02769)
Assay: Inhibition of glycation of bovine serum albumin by D-ribose (AGE fluorescence)
Type: biochemical
Conditions: for inhibition at 1 µM / inhibition at 10 µM: read-out: % inhibition (of glycation)
Experimental: A solution of bovine serum albumin at 1 mg/ml in solution in phosphate buffered saline (PBS) was incubated at 37° C. for 14 days in the presence or in the absence of D-ribose at the concentration of […], of 3,3′,5,5′-tetrahydroxystilbene or of resveratrol, each at the concentrations of 1 μM and 10 μM.
The glycation was evaluated by measuring the fluorescence of the AGEs at λem.=440 nm emitted by each sample after excitation at λex.=370 nm.
The inhibition of glycation was visualized by the reduction in the fluorescence compared with the sample treated with the sugar alone.

bovine serum albumin, sequence (P02769 25-607): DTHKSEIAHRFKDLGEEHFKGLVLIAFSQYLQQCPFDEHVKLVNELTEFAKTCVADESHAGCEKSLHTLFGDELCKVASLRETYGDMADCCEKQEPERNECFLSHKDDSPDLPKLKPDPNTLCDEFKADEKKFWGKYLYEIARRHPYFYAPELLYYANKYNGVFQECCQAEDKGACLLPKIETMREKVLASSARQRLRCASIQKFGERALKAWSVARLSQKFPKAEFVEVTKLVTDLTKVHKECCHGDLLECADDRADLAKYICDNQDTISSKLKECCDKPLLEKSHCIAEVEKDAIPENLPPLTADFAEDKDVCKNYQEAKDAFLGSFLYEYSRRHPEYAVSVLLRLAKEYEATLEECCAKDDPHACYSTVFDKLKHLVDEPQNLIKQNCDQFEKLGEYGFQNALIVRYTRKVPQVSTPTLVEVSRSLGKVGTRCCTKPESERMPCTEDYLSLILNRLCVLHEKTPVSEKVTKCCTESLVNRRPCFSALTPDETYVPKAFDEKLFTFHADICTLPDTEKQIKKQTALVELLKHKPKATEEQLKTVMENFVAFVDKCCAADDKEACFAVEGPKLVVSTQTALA

Oc1ccc(C=Cc2cc(O)cc(O)c2)cc1 [B, resveratrol, reference compound]
inhibition at 1 µM (compound 1 μM, BSA 1 mg/ml in PBS, D-ribose 10 μM, 37° C., 14 days, AGE fluorescence λex 370 nm/λem 440 nm vs sugar alone): 7.1% | inhibition at 10 µM (compound 10 μM, BSA 1 mg/ml in PBS, D-ribose 10 μM, 37° C., 14 days, AGE fluorescence λex 370 nm/λem 440 nm vs sugar alone): 7.1%

Oc1cc(O)cc(/C=C/c2cc(O)cc(O)c2)c1 [A, 3,3′,5,5′-tetrahydroxystilbene]
antiglycation effect relative to resveratrol (at the concentration of 10 μM): ~2 times | antiglycation effect (in words) (from the concentration of 1 μM): advantageous antiglycation effect | inhibition at 1 µM: 7.1% | inhibition at 10 µM: 14.3%
